pIC50: −log10 of the molar value.

We go through one compound from patent publication US6936628B2, “Oral administration of epothilones” (Bristol-Myers Squibb Company, priority 2002, dated 2005).

The subject of data set [1] is panel of tumor cell lines. Briefly: In vitro cytotoxicity assay (MTS), panel of tumor cell lines. The following applies: Homo sapiens; 7 of the 8 cell lines tested, 72-hour incubation. The format is cell-based.
Data set [2] relates to tubulin isolated from calf brain. The format is biochemical.
Data set [3] can be described thus: Stability in rat EDTA plasma and whole blood. The format is in vitro ADME. The procedure:
Plasma samples from exploratory pharmacokinetic studies were analyzed for Compound A concentrations using an LC/MS/MS assay with a standard curve range of 3.9 to 2000 ng/mL. In pharmacodynamic studies, Compound A concentrations were determined using an LC/MS/MS assay with a standard curve range of 10-40000 nM (5.23-20920 ng/mL) in mouse plasma. For toxicology studies, validated LC/MS/MS assays were used to determine the concentrations of Compound A in rat and dog plasma. Analytical data management for the validated assays was carried out using Watson®. The standard curve range for the validated assay in both matrices was 2 to 500 ng/mL of Compound A. The coefficient of variation for the inter- and intra-assay precision in rat and dog plasma was within 9% and the accuracy was greater than 92%. […] Compound A was stable for at least 4 months at !20EC and through at least 3 freeze-thaw cycles in rat and dog EDTA plasma. In addition, Compound A was stable in fresh rat and dog EDTA whole blood for at least 1 h at 4EC.

Another data set in a line: Pharmacokinetics in mice. The format is in vivo. The settings on record: nude mice. The procedure: The pharmacokinetics of Compound A was evaluated in nude mice after IV (5 mg/kg) and oral (15 mg/kg) administration (n=15 mice/group). Compound A was dissolved in a mixture of cremophor:ethanol:water (10:10:80) and cremophor:ethanol:phosphate buffer, pH 8 (10:10:80) for the preparation of IV and oral doses, respectively. Plasma concentrations of Compound A were determined at 10 and 45 min, and 2, 4, and 6 hours postdose from 3 mice/time point/group. Composite plasma concentration-time profiles were constructed for pharmacokinetic analysis. […] The VSS values was 38 L/kg which is greater than total body water of about 0.7 L/kg, indicating significant extravascular distribution. The T-HALF value, both after IV and oral administration, was 3.3 h.

The nature of data set [4]: Single dose IV toxicokinetic study in dogs. The class given is in vivo. The following applies: both sexes, dog, plasma, IV infusion; for Cmax: combined across gender. Here is the method: The single dose IV toxicokinetics of Compound A were evaluated in dogs as a part of a toxicology study. Compound A, prepared in 50 mM citrate buffer (pH 5), was given by IV infusion (over approximately 2-3 min period) at nominal doses of 0.07 and 0.35 mg/kg (the actual doses were 0.055 and 0.27 mg/kg, respectively) to 2 dogs/sex/dose. Blood samples were collected at 5 and 30 minutes, and at 1, 3, 6, 12, and 24 h after dosing. Plasma concentrations of Compound A were determined using a validated LC/MS/MS assay with a standard curve range of 2-500 ng/mL. […] Definitive comparison between sex was not made due to limited sample size per sex; however, it appeared that there were no marked differences in the systemic exposure to Compound A between male and female dogs.

A short description of data set [5]: Stability of diluted solutions. The following applies: diluted with 0.9% Sodium Chloride Injection, 5° C. or room temperature and room light. The class given is physicochemical.
The conditions of data set [6]: vehicle 1 versus vehicle 2.
Protocol: In another pharmacokinetic study, fasted male Sprague-Dawley rats, assigned to two IA groups (2 mg/kg) and one oral (8 mg/kg) group (n=3/group), were administered a single dose of Compound A. Compound A was prepared for IA administration in two separate vehicles: vehicle 1, cremophor:ethanol:water (10:10:80), and vehicle 2, ethanol:phosphate buffer, 0.05 M, pH 7.4 (6:94). The vehicle for the oral administration was ethanol:phosphate buffer, 0.3 M, pH 8 (18:82). Samples were collected at 10, 15, 30, and 45 min, and at 1, 2, 4, 6, 8, 10, 24, and 48 hours after dosing.
Another data set deals with CYP2C9 (Homo sapiens, UniProt P11712). Briefly: biochemical.
A short description of a further data set: Liver S9 incubation, rat. The settings on record: rat liver S9, 20 μM.
Data set [7] can be described thus: Liver S9 incubation, mouse. The following applies: mouse liver S9, 20 μM.
Data set [8] in a line: Microsomal incubation, mouse. The settings on record: mouse liver microsomes + NADPH, 20 μM. Background: Liver microsomes are vesicles of endoplasmic reticulum, rich in cytochrome P450 enzymes.
For another data set, the target named is T1, CYP1A2 (Homo sapiens, UniProt P05177).
T1 sequence (P05177 1-516): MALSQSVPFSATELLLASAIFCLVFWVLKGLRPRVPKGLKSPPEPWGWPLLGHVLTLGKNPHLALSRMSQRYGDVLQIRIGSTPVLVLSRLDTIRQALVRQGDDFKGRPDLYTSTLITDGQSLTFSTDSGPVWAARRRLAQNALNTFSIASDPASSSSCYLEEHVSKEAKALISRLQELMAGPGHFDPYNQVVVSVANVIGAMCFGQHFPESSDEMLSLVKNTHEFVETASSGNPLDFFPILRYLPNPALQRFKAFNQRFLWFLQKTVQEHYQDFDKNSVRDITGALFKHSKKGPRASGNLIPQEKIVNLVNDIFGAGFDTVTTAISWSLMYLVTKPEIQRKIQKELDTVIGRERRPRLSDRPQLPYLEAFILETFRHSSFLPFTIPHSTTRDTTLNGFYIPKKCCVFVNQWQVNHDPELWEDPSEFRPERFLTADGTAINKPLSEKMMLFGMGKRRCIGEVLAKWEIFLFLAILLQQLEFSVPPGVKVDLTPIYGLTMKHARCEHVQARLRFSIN
Briefly: Inhibition of human CYP enzymes, CYP1A2.

CYP2C9, sequence (P11712 whole entry): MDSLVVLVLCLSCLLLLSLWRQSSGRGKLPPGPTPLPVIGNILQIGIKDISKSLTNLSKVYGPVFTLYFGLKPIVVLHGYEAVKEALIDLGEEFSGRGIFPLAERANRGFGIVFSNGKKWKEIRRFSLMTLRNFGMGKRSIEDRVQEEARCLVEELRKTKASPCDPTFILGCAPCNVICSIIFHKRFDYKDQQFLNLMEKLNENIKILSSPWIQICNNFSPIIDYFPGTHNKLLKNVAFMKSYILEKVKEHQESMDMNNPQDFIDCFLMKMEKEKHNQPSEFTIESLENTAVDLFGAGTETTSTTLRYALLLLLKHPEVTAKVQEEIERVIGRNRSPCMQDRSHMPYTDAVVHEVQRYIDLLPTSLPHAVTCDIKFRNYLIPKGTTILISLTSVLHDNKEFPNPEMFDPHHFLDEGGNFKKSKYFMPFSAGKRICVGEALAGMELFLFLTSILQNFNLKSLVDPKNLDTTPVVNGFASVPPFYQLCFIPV

For orientation: pIC50 means the negative decadic logarithm of the IC50, by convention in mol/L. Low readings indicate a large IC50, high ones a small IC50. By bioavailability is commonly meant the share of a dose that reaches the circulation, judged against a reference dose that is usually intravenous. The AUC is concentration integrated over time. The low end stands for low exposure, the high end for high exposure. As usually defined, the Cmax is the highest concentration seen after dosing. For `C/C(=C\c1csc(CN)n1)[C@@H]1C[C@@H]2O[C@]2(C)CCC[C@H](C)[C@H](O)[C@@H](C)C(=O)C(C)(C)[C@@H](O)CC(=O)O1` (relative stereo) [Compound A, [1S-[1R*,3R*(E),7R*,10S*,11R*,12R*,16S*]]-3-[2-[2-(aminomethyl)-4-thiazolyl]-1-methylethenyl]-7,11-dihydroxy-8,8,10,12,16-pentamethyl-4,17-dioxabicyclo[14.1.0]heptadecane-5,9-dione], the figures for the pIC50 (in data set [1]; against CYP2C9; on CYP1A2) were 8.46 to 9.05, 4.97 and under 4.15, respectively. The “Polymerization Potency, EC0.01” value in data set [2] stood at 7.4 µM. Also, the “Ratio of Polymerization Potency of Analog/Paclitaxel” value in data set [2] was determined as 1.7. In addition, the “stable through freeze-thaw cycles” value in data set [3] (rat EDTA plasma) was “at least 3 freeze-thaw cycles”. In addition, in data set [3] (rat EDTA plasma, !20EC), the “stable in frozen plasma” value is “at least 4 months”. For the same compound, the “stable in plasma prior to processing” value in data set [3] (rat EDTA plasma, room temperature) is listed as “at least 4 h”. Besides, the “stable in fresh whole blood” value in [3] (rat EDTA whole blood, 4EC) is listed as “at least 1 h”. Further, the “stable in an autosampler after processing” value in [3] (rat plasma samples, 4EC) is recorded as “at least 5 days”. For the same compound, in the data set “Pharmacokinetics in mice” (mouse, plasma, IV 5 mg/kg, read-out: VSS), the Vd was determined as 38 L/kg. The bioavailability in “Pharmacokinetics in mice” (mouse, plasma, oral 15 mg/kg vs IV 5 mg/kg, read-out: absolute oral bioavailability) was 21%. Besides, the CLT in the data set “Pharmacokinetics in mice” (IV 5 mg/kg) came to 152 mL/min/kg. The T-HALF in “Pharmacokinetics in mice” (IV 5 mg/kg) and in “Pharmacokinetics in mice” (oral 15 mg/kg) was 3.3 h each time. The results for the AUC in [4] (0.055 mg/kg) and in [4] (0.27 mg/kg) were 48.3 ng·h/mL and 362 ng·h/mL, respectively. The results for the Cmax in data set [4] (0.055 mg/kg) and in data set [4] (0.27 mg/kg) were 104 ng/mL and 664 ng/mL, respectively. In data set [5], the “time solutions are stable after final dilution” value was at most 24 h. In addition, the “increase in systemic exposure with cremophor vehicle” value in data set [6] is reported as “about 4 fold”. The “rate of oxidative metabolism” value in “Liver S9 incubation, rat” is 0.04; in data set [7] it was 0.06; in data set [8], 0.3.
